The values that follow come from ChEMBL document CHEMBL1128211, “3D-quantitative structure-activity relationships of human immunodeficiency virus type-1 proteinase inhibitors: comparative molecular field analysis of 2-heterosubstituted statine derivatives-implications for the design of novel inhibitors” (J Med Chem, 1995).

The structures appear in SMILES notation.

This assay has as its target Human immunodeficiency virus type 1 protease (Human immunodeficiency virus 1, UniProt Q72874). The assay can be described thus: Inhibitory activity was determined against HIV type 1 protease.

On to `CC(C)[C@H](NC(=O)OCc1ccccc1)C(=O)N[C@@H](Cc1ccccc1)[C@@H](O)[C@@H](NCc1ccccc1)C(=O)N[C@H](C(=O)NCc1ccncc1)C(C)C`, for which the Ki is 11 nM.
`CC(C)(C)[C@H](NC(=O)OCc1ccccc1)C(=O)N[C@@H](Cc1ccccc1)[C@@H](O)[C@@H](NCc1ccccc1)C(=O)N[C@H]1c2ccccc2CC1O` (stereo not given in full) gave a Ki of 14.5 nM.
The value for `CC(C)[C@H](NC(=O)[C@H](NCc1ccccc1)[C@H](O)[C@H](Cc1ccccc1)NC(=O)[C@@H](NC(=O)OCC1c2ccccc2-c2ccccc21)C(C)(C)C)C(=O)NCc1ccccc1` was 15.8 nM; that for `COc1ccc(CN[C@@H](C(=O)N[C@H](C(=O)NCc2nc3ccccc3[nH]2)C(C)C)[C@H](O)[C@H](Cc2ccccc2)NC(=O)[C@@H](NC(=O)CCc2ccc(P(=O)(O)O)cc2)C(C)(C)C)cc1` was 7.76 nM.
On to `CC(C)[C@H](NC(=O)[C@H](NCc1ccccc1)[C@H](O)[C@H](Cc1ccccc1)NC(=O)[C@H](CC(N)=O)NC(=O)c1ccc2ccccc2n1)C(=O)NCc1ccccc1`, for which the Ki was 24 nM.
`CC(C)(C)[C@H](NC(=O)OCc1ccccc1)C(=O)N[C@@H](Cc1ccccc1)[C@@H](O)[C@@H](NCc1ccc(CNC(=O)CCc2nc3ccccc3[nH]2)cc1)C(=O)NCc1ccccc1` had a Ki of 53.7 nM.
The value for `COC(=O)CC[C@H](NC(=O)[C@H](NCc1ccc(OC)cc1)[C@H](O)[C@H](Cc1ccccc1)NC(=O)[C@@H](NC(=O)OCc1ccccc1)C(C)C)C(=O)NCc1nc2ccccc2[nH]1` was 11 nM; that for `CC(C)[C@H](NC(=O)OCc1ccccc1)C(=O)N[C@@H](Cc1ccccc1)[C@@H](O)[C@@H](NCc1ccccc1)C(=O)N[C@H](C(=O)OCc1nc2cc(Cl)c(Cl)cc2[nH]1)C(C)C` was 22.9 nM; that for `CC(C)[C@H](NC(=O)[C@H](NCc1ccccc1)[C@H](O)[C@H](Cc1ccccc1)NC(=O)[C@@H](N)C(C)(C)C)C(=O)NCc1ccccc1` was 91.2 nM.
In turn, `CC(C)[C@H](NC(=O)OCc1ccccc1)C(=O)N[C@@H](CCc1ccccc1)[C@@H](O)[C@@H](NCc1ccc(Cl)cc1)C(=O)N[C@H](C(=O)NCc1nc2ccccc2[nH]1)C(C)C` showed a Ki of 17 nM.
Consider `COc1ccc(CN[C@@H](C(=O)N[C@H](C(=O)Nc2nc3ccccc3[nH]2)C(C)C)[C@H](O)[C@H](Cc2ccccc2)NC(=O)[C@@H](NC(=O)OCc2ccccc2)C(C)C)cc1`, for which the affinity, expressed as Ki, was 10 nM.
For `CC(C)[C@H](N)C(=O)C[C@@H](Cc1ccccc1)[C@@H](O)[C@H]1CCc2ccc(cc2)OCCOCCOCCCOCCNC(=O)[C@H](C(C)C)CC1=O`, the affinity corresponds to a Ki of 7.59 nM.
The value for `CC(=O)NCc1ccc(CN[C@@H](C(=O)N[C@H]2c3ccccc3CC2O)[C@H](O)[C@H](Cc2ccccc2)NC(=O)[C@@H](NC(=O)OCc2ccccc2)C(C)(C)C)cc1` (stereo not given in full) was 5.75 nM.
The value for `CC(C)[C@H](NC(=O)OCc1ccccc1)C(=O)N[C@@H](Cc1ccccc1)[C@@H](O)[C@@H](NCc1ccccc1)C(=O)N[C@H](C(=O)NCc1ccc(Br)cc1)C(C)C` was 15.1 nM; that for `COc1ccc(CCN[C@@H](C(=O)N[C@H](C(=O)NCc2nc3ccccc3[nH]2)C(C)C)[C@H](O)[C@H](Cc2ccccc2)NC(=O)[C@@H](NC(=O)OCc2ccccc2)C(C)C)cc1` was 12.6 nM; that for `CCOc1ccc(CN[C@@H](C(=O)N[C@H](C(=O)NCc2nc3ccccc3[nH]2)C(C)C)[C@H](O)[C@H](Cc2ccccc2)NC(=O)[C@@H](NC(=O)OCc2ccccc2)C(C)C)cc1` was 24 nM.
Turning to `CC(C)[C@H](NC(=O)[C@H](NCc1ccccc1)[C@H](O)[C@H](Cc1ccccc1)NC(=O)[C@@H](NC(=O)COc1ccccc1)C(C)(C)C)C(=O)NCc1ccccc1`, the Ki is 15.8 nM.
The value for `CC(C)[C@H](NC(=O)[C@H](NCc1ccccc1)[C@H](O)[C@H](Cc1ccccc1)NC(=O)[C@@H](NC(=O)CCc1ccc(O)cc1)C(C)(C)C)C(=O)NCc1ccccc1` was 12.9 nM.
Compound `COc1ccc(CN[C@@H](C(=O)NCc2nc3ccccc3[nH]2)[C@H](O)[C@H](Cc2ccccc2)NC(=O)OC(C)(C)C)cc1` had a Ki of 2290 nM.
`CC(C)[C@H](NC(=O)[C@H](NCc1ccccc1)[C@H](O)[C@H](Cc1ccccc1)NC(=O)[C@@H](NC(=O)[C@@H](O)Cc1ccccc1)C(C)(C)C)C(=O)NCc1ccccc1` had a Ki of 15.1 nM.
The value for `CC[C@H](C)[C@H](NC(=O)[C@H](NCc1ccccc1)[C@H](O)[C@H](Cc1ccccc1)NC(=O)[C@@H](NC(=O)OCc1ccccc1)C(C)C)C(=O)NCc1ccccc1` was 43.7 nM; that for `COc1ccc(CN[C@@H](C(=O)N[C@H](C(=O)NCc2ccc(OC)cc2OC)C(C)C)[C@H](O)[C@H](Cc2ccccc2)NC(=O)[C@@H](NC(=O)OCc2ccccc2)C(C)C)cc1` was 4.17 nM; that for `COc1ccc(CN[C@@H](C(=O)N[C@H](C(=O)NCc2nc3ccccc3[nH]2)C(C)C)[C@H](O)[C@H](Cc2ccccc2)NC(=O)[C@@H](NC(=O)CCc2ccc(C(P(=O)(O)OCc3ccccc3)P(=O)(O)OCc3ccccc3)cc2)C(C)(C)C)cc1` (stereo not given in full) was 5.25 nM.
`COc1ccc(CN[C@@H](C(=O)N[C@H]2c3ccccc3CC2O)[C@H](O)[C@H](Cc2ccccc2)NC(=O)OC(C)(C)C)cc1` (stereo not given in full) gave a Ki of 148 nM. This Ki is about 28-fold higher than that of the compound before.
The compound `CC(C)[C@H](NC(=O)OCc1ccccc1)C(=O)N[C@@H](Cc1ccccc1)[C@@H](O)[C@@H](NCc1cccnc1)C(=O)N[C@H](C(=O)NCc1ccccc1)C(C)C` showed an inhibitory constant (Ki) of 7.08 nM.
As for `COc1ccc(CN[C@@H](C(=O)N[C@H](C(=O)NCc2nc3cc[nH]cc-3n2)C(C)C)[C@H](O)[C@H](Cc2ccccc2)NC(=O)[C@@H](NC(=O)OCc2ccccc2)C(C)C)cc1`, the affinity, expressed as Ki, was 4.17 nM. Against the preceding compound, the Ki is about 1.7-fold lower.
In the case of `COc1ccc(CN[C@@H](C(=O)NCC(=O)NCc2nc3ccccc3[nH]2)[C@H](O)[C@H](Cc2ccccc2)NC(=O)[C@@H](NC(=O)OCc2ccccc2)C(C)C)cc1`, the Ki is 15.5 nM.
To `COc1ccc(CN[C@@H](C(=O)N[C@H](C(=O)NCCc2nc3ccccc3[nH]2)C(C)C)[C@H](O)[C@H](Cc2ccccc2)NC(=O)[C@@H](NC(=O)OCc2ccccc2)C(C)C)cc1` belongs 8.91 nM.
Turning to `COc1ccc(CN[C@@H](C(=O)N[C@H](C(=O)NCc2nc3ccccc3[nH]2)c2ccccc2)[C@H](O)[C@@H](N)Cc2ccccc2)cc1`, the Ki was 89.1 nM.
The compound `COc1ccc(CN[C@@H](C(=O)N[C@H](C(=O)NCCN(C)C)C(C)C)[C@H](O)[C@H](Cc2ccccc2)NC(=O)[C@@H](NC(=O)OCc2ccccc2)C(C)C)cc1` showed a Ki of 25.7 nM. Compared with the last compound, the Ki is about 3.5-fold lower.
To `Cc1cn(CCO)c(=O)n(CCOC(=O)[C@@H](NC(=O)[C@H](NCc2ccccc2)[C@H](O)[C@H](Cc2ccccc2)NC(=O)[C@@H](NC(=O)OCc2ccccc2)C(C)C)C(C)C)c1=O` belongs 550 nM.
`CCOC(=O)[C@H](NCc1ccc(CNCc2ccccc2)cc1)[C@H](O)[C@H](Cc1ccccc1)NC(=O)[C@@H](NC(=O)OCc1ccccc1)C(C)C` gave an inhibitory constant (Ki) of 1910 nM.
Take `COc1ccc(CN[C@@H](C(=O)N[C@H](C(=O)NCCNc2ccc([N+](=O)[O-])cn2)C(C)C)[C@H](O)[C@H](Cc2ccccc2)NC(=O)[C@@H](NC(=O)OCc2ccccc2)C(C)C)cc1`: the affinity, expressed as Ki, was 9.55 nM.
`CCOC(=O)[C@H](NCc1ccc(CN)cc1)[C@H](O)[C@H](Cc1ccccc1)NC(=O)[C@@H](NC(=O)OCc1ccccc1)C(C)C` gave a Ki of 2690 nM. Against the preceding compound, the Ki is about 280-fold higher.
`COc1ccc(CN[C@@H](C(=O)N[C@H](C(=O)NCc2nc3cc[nH]cc-3n2)C(C)C)[C@H](O)[C@H](Cc2ccccc2)NC(=O)OC(C)(C)C)cc1` had a Ki of 15.1 nM.
The value for `COc1ccc(CN[C@@H](C(=O)NCC(=O)Nc2cnccc2N)[C@H](O)[C@H](Cc2ccccc2)NC(=O)[C@@H](NC(=O)OCc2ccccc2)C(C)C)cc1` was 1510 nM; that for `CC(C)[C@H](NC(=O)OCCCCCN)C(=O)N[C@@H](Cc1ccccc1)[C@@H](O)[C@@H](NCc1ccccc1)C(=O)N[C@H](C(=O)NCc1ccccc1)C(C)C` was 33.1 nM.
In turn, `CC(C)(C)OC(=O)N[C@@H](Cc1ccccc1)[C@@H](O)[C@@H](NCc1ccc(CNC(=O)Nc2ccccc2)cc1)C(=O)N[C@H]1c2ccccc2CC1O` (stereo not given in full) gave a Ki of 33.1 nM. This lies in the double-digit nanomolar range.
`CC(C)[C@H](NC(=O)OCc1ccccc1)C(=O)N[C@@H](Cc1ccccc1)[C@@H](O)[C@@H](NCc1ccccc1)C(=O)N[C@H](C(=O)OCc1nc2ccc([N+](=O)[O-])cc2[nH]1)C(C)C` gave a Ki of 30.2 nM.
To `COc1ccc(CN[C@@H](C(=O)N[C@H](C(=O)NCc2nc3ccccc3[nH]2)C(C)C)[C@H](O)[C@H](Cc2ccccc2)NC(=O)[C@@H](NC(=O)CCc2ccc(O)c(I)c2)C(C)(C)C)cc1` belongs 4.27 nM.
The value for `COc1ccc(CN[C@@H](C(=O)N[C@H](C(=O)Nc2ccc3ncsc3c2)C(C)C)[C@H](O)[C@H](Cc2ccccc2)NC(=O)[C@@H](NC(=O)OCc2ccccc2)C(C)C)cc1` was 15.8 nM.
With `CC(C)[C@H](N)C(=O)C[C@@H](Cc1ccccc1)[C@@H](O)[C@H]1CCc2ccc(cc2)OCCOCCCOCCNC(=O)[C@H](C(C)C)CC1=O`, the Ki was 6.92 nM. Compared with the last compound, the Ki is about 2.3-fold lower.
In turn, `CC(C)[C@H](NC(=O)COc1ccccc1)C(=O)N[C@@H](Cc1ccccc1)[C@@H](O)[C@@H](NCc1ccccc1)C(=O)NCc1ccccc1` gave a Ki of 138 nM.
The value for `COc1ccc(CN[C@@H](C(=O)N[C@H](C(=O)NCc2nc3ccccc3[nH]2)C(C)C)[C@H](O)[C@H](Cc2ccccc2)NC(=O)OC(C)(C)C)cc1` was 7.76 nM; that for `CC(C)[C@H](NC(=O)OCc1ccccc1)C(=O)N[C@@H](Cc1ccccc1)[C@@H](O)[C@H](NCc1ccccc1)C(=O)N[C@H](C(=O)NCc1cccnc1)C(C)C` was 141 nM.
For `CCOc1ccc(CN[C@@H](C(=O)N[C@H]2c3ccccc3CC2O)[C@H](O)[C@H](Cc2ccccc2)NC(=O)OC(C)(C)C)cc1` (stereo not given in full), the Ki is 91.2 nM. This Ki is about 1.5-fold lower than that of the compound before.
`CC(C)(C)[C@H](NC(=O)OCc1ccccc1)C(=O)N[C@@H](Cc1ccccc1)[C@@H](O)[C@@H](NCc1ccccc1)C(=O)N[C@@H]1c2ccccc2CC1O` (stereo not given in full) gave a Ki of 1580 nM.
The value for `COc1ccc(CN[C@@H](C(=O)N[C@H](C(=O)Nc2nc3ccccc3s2)C(C)C)[C@H](O)[C@H](Cc2ccccc2)NC(=O)[C@@H](NC(=O)OCc2ccccc2)C(C)C)cc1` was 10.5 nM.
In the case of `CC(C)(C)OC(=O)N[C@@H](Cc1ccccc1)[C@@H](O)[C@@H](NCc1ccc(OCCO)cc1)C(=O)N[C@H]1c2ccccc2CC1O` (stereo not given in full), affinity was put at a Ki of 79.4 nM.
Regarding `CC(C)(C)OC(=O)N[C@@H](Cc1ccccc1)[C@@H](O)[C@@H](NCc1ccc(CNC(=O)CCc2nc3ccccc3[nH]2)cc1)C(=O)NCc1ccccc1`, the Ki is 676 nM. Compared with the last compound, the Ki is about 8.5-fold higher.
